Measurements taken from patent US11999728B2, “Estrogen receptor modulators” (Recurium IP Holdings, LLC, priority 2020, dated 2024).
pIC50: −log10 of the molar value.

Assays:
MCF7 = assay: Breast Cancer Cell Proliferation Assay (MCF-7), Cell Titer-Glo; assay type: cell-based; settings: Homo sapiens, MCF7 cells, 5 days of compound exposure
Description: Breast Cancer Cell Proliferation Assay (MCF-7)
MCF7 was expanded and maintained in the medium (Phenol red free DMEM/F12 (Hyclone SH30272.01) NEAA (Gibco11140-050) Na-pyruvate (Gibco 11360-070) and Re-stripped Charcoal stripped FBS (Gemini 100-119)). The cells were adjusted to a concentration of 3,000 cells per mL in the above media, and the cells were incubated (37° C., 5% CO2). The following day a 10-point, serial dilution of compounds was added to the cells at a final concentration ranging from 10-0.000005 μM for test compounds (17β-estradiol was used as a control). Additional cells were plated in 30 wells to serve as the day 1 (pretreatment) comparison. After 5 days of compound exposure, Cell Titer-Glo reagent was added to the cells and the relative luminescence units (RLUs) of each well was determined. Cell Titer-Glo was also added to 32 μL of medium without cells to obtain a background value. The plates were allowed to incubate at room temperature for 10 minutes to stabilize luminescent signal and the luminescence signal was recorded with EnSpire. The relative increase in cell number of each sample is determined as follows: (RLU sample-RLU background/RLU estrogen only treated cells-RLU background)×100=% inhibition.

[1] = Pharmacokinetic Determination (Mouse PK); assay type: in vivo, female CD-1 mice; settings: female; for Kp at 2 h: CD-1, PO 10.0 mg/kg, Brain concentration vs plasma concentration at 2 hours post dosing, read-out: B/P ratio; for AUC(0-t) / clearance / half-life / Vd / bioavailability / Cmax / Tmax: CD-1, plasma; for Vd: read-out: Vdss; for bioavailability: PO 10.0 mg/kg vs IV 3.0 mg/kg
Description: Pharmacokinetic Determination
Grouping female CD-1 mice weighing 20-30 g randomly to three groups; one group was administered with test compound at a dose of 3.0 mg/kg by intravenous injection, the other two groups were administered with test compound at a dose of 10.0 mg/kg by oral. The formulation for IV groups is DMSO/PEG400/30% HP-β-CD (5/20/75) and the formulation for PO groups is 25% HP-β-CD in 25 mM citrate buffer (pH3.0). After administering, blood samples of intravenous injection group were collected at time points of predose, 0.0833, 0.25, 0.5, 1, 2, 4, 8, 12 and 24 h; blood samples of oral group were collected at time points of predose, 0.25, 0.5, 1, 2, 4, 8, 12, and 24 h. Both blood samples and brain samples were collected at 2 hours post dosing for the second PO group. Standard curve was plotted based on concentrations of the samples in a suitable range, the concentrations of test compounds in plasma samples and brain samples were determined by using LC-MS/MS. Pharmacokinetic parameters were calculated according to drug concentration-time curve using a noncompartmental method by WinNonLin (Phoenix™, version 6.1) or other similar software.

SMILES	pIC50 (MCF7; MCF7, 120 h)	Kp at 2 h [1]	AUC(0-t) ([1]; IV, 3.0 mg/kg) [µM·h]	clearance ([1]; IV, 3.0 mg/kg) [mL/min/kg]	half-life ([1]; IV, 3.0 mg/kg) [h]	Vd ([1]; IV, 3.0 mg/kg) [L/kg]	bioavailability [1] [%]	AUC(0-t) ([1]; PO, 10.0 mg/kg) [µM·h]	Cmax ([1]; PO, 10.0 mg/kg) [nM]	Tmax ([1]; PO, 10.0 mg/kg) [h]	half-life ([1]; PO, 10.0 mg/kg) [h]	pIC50 (MCF7; 120 h)
C[C@@H]1Cc2c([nH]c3ccccc23)[C@@H](c2c(F)cc(O[C@@H]3CCN(CCCF)C3)cc2F)N1C12CC(C1)C2 (single isomer, unassigned) [Compound 5]	6.60 to 7.60	7.07	2.93	30.2	9.1	16.7	49.5	4.84	610	1	9.4	–
C[C@@H]1Cc2c([nH]c3ccccc23)[C@@H](c2c(F)cc(O[C@H]3CCN(CCCF)C3)cc2F)N1C12CC(C1)C2 (single isomer, unassigned) [Compound 6]	≥ 7.60	4.42	2.93	30.2	9.1	16.7	49.5	4.84	611	1	9.4	–
C[C@@H]1Cc2c([nH]c3ccccc23)[C@@H](c2ccc(O[C@H]3CCN(CCCF)C3)nc2)N1C12CC(C1)C2 (single isomer, unassigned) [Compound 10]	≥ 7.60	7.51	1.03	101	2.19	12.8	15.3	0.527	178	0.5	2.12	–
C[C@@H]1Cc2c([nH]c3ccccc23)[C@@H](c2ccc(NC3CN(CCCF)C3)cc2)N1C12CC(CO)(C1)C2 (single isomer, unassigned) [Compound 58]	≥ 7.60	–	1.04	92	7.08	42.3	31.8	1.1	80	2	5.56	–
C[C@@H]1Cc2c([nH]c3ccccc23)[C@@H](c2c(F)cc(N[C@H]3CCN(CCCF)C3)cc2F)N1C12CC(CO)(C1)C2 (single isomer, unassigned) [Compound 70]	≥ 7.60	–	2.46	36.1	6.51	12.2	21.4	2.09	210	2	5.25	–
C[C@@H]1Cc2c(ccc3[nH]ncc23)[C@@H](c2ccc(NC3CN(CCCF)C3)cn2)N1CC(F)(F)F [AZD9833, reference compound]	≥ 7.60	0.23	–	–	–	–	–	4.19	649	2	2.34	–
C[C@@H]1Cc2c([nH]c3ccccc23)[C@@H](c2c(F)cc(NC3CN(CCCF)C3)cc2F)N1C12CC(C1)C2 [Compound 1, N-(4-((1R,3R)-2-(bicyclo[1.1.1]pentan-1-yl)-3-methyl-2,3,4,9-tetrahydro-1H-pyrido[3,4-b]indol-1-yl)-3,5-difluorophenyl)-1-(3-fluoropropyl)azetidin-3-amine]	–	11	2.79	24.2	18	31.9	52.4	4.88	466	2	10.5	≥ 7.60
C[C@@H]1Cc2c([nH]c3ccccc23)[C@@H](c2ccc(NC3CN(CCCF)C3)cn2)N1C12CC(C1)C2 [Compound 2, 6-((1S,3R)-2-(bicyclo[1.1.1]pentan-1-yl)-3-methyl-2,3,4,9-tetrahydro-1H-pyrido[3,4-b]indol-1-yl)-N-(1-(3-fluoropropyl)azetidin-3-yl)pyridin-3-amine]	–	2.87	1.74	55.8	8.78	31.9	43.3	2.51	358	1	7.23	≥ 7.60
C[C@@H]1Cc2c([nH]c3ccccc23)[C@@H](c2ccc(NC3CN(CCCF)C3)cc2F)N1C12CC(C1)C2 [Compound 15, N-(4-((1R,3R)-2-(bicyclo[1.1.1]pentan-1-yl)-3-methyl-2,3,4,9-tetrahydro-1H-pyrido[3,4-b]indol-1-yl)-3-fluorophenyl)-1-(3-fluoropropyl)azetidin-3-amine]	≥ 7.60	10.8	0.892	100	10	66.4	47.3	1.45	200	1	9.2	–
C[C@@H]1Cc2c([nH]c3ccccc23)[C@@H](c2cnc(NC3CN(CCCF)C3)cn2)N1C12CC(C1)C2 [Compound 16, 5-((1S,3R)-2-(bicyclo[1.1.1]pentan-1-yl)-3-methyl-2,3,4,9-tetrahydro-1H-pyrido[3,4-b]indol-1-yl)-N-(1-(3-fluoropropyl)azetidin-3-yl)pyrazin-2-amine]	≥ 7.60	–	2.08	53.5	3.85	11.8	39.5	2.73	590	1	3.24	–
C[C@@H]1Cc2c([nH]c3ccccc23)[C@@H](c2c(F)cc(N[C@H]3CCN(CCCF)C3)cc2F)N1C12CC(C1)C2 [Compound 19, (S)—N-(4-((1R,3R)-2-(bicyclo[1.1.1]pentan-1-yl)-3-methyl-2,3,4,9-tetrahydro-1H-pyrido[3,4-b]indol-1-yl)-3,5-difluorophenyl)-1-(3-fluoropropyl)pyrrolidin-3-amine]	≥ 7.60	12.3	2.15	47.6	6.58	23.2	69.8	5	440	1	8.5	–
C[C@@H]1Cc2c([nH]c3ccccc23)[C@@H](c2ccc(NC3CN(CCCF)C3)nc2)N1C12CC(C1)C2 [Compound 21, 5-((1R,3R)-2-(bicyclo[1.1.1]pentan-1-yl)-3-methyl-2,3,4,9-tetrahydro-1H-pyrido[3,4-b]indol-1-yl)-N-(1-(3-fluoropropyl)azetidin-3-yl)pyridin-2-amine]	< 6.60	–	0.59	–	–	–	5.03	0.1	60	0.25	1.01	–
COc1cc(NC2CN(CCCF)C2)cc(F)c1[C@@H]1c2[nH]c3ccccc3c2C[C@@H](C)N1C12CC(C1)C2 [Compound 92, N-(4-((1R,3R)-2-(bicyclo[1.1.1]pentan-1-yl)-3-methyl-2,3,4,9-tetrahydro-1H-pyrido[3,4-b]indol-1-yl)-3-fluoro-5-methoxyphenyl)-1-(3-fluoropropyl)azetidin-3-amine]	≥ 7.60	–	–	–	–	–	–	–	–	–	–	–
CCCNCC1CCN(c2ccc([C@@H]3c4[nH]c5ccccc5c4C[C@@H](C)N3C34CC(C3)C4)cc2)CC1 [Compound 93, N-((1-(4-((1R,3R)-2-(bicyclo[1.1.1]pentan-1-yl)-3-methyl-2,3,4,9-tetrahydro-1H-pyrido[3,4-b]indol-1-yl)phenyl)piperidin-4-yl)methyl)propan-1-amine]	≥ 7.60	–	–	–	–	–	–	–	–	–	–	–
COc1cc(NC2CN(CCCF)C2)cnc1[C@@H]1c2[nH]c3ccccc3c2C[C@@H](C)N1C12CC(C1)C2 [Compound 94, 6-((1S,3R)-2-(bicyclo[1.1.1]pentan-1-yl)-3-methyl-2,3,4,9-tetrahydro-1H-pyrido[3,4-b]indol-1-yl)-N-(1-(3-fluoropropyl)azetidin-3-yl)-5-methoxypyridin-3-amine]	≤ 6.60	–	–	–	–	–	–	–	–	–	–	–
C[C@]12CC[C@@H]3c4ccc(O)cc4C[C@@H](CCCCCCCCC[S+]([O-])CCCC(F)(F)C(F)(F)F)[C@H]3[C@@H]1CC[C@@H]2O (stereo partly shown) [fulvestrant, reference compound]	≥ 7.60	–	–	–	–	–	–	–	–	–	–	–
